Test results taken from patent US20080306275A1, “NOVEL HETEROARYL DERIVATIVE” (Danippon Sumitomo Pharma Co., Ltd., priority 2003, published 2008).
Where a name gives a salt, the structure may show the parent alone.

How the values were obtained:
[1] = biological target: T1, human PPARα (Homo sapiens, UniProt Q07869); assay: GAL4-PPARα luciferase reporter assay in COS-1 cells; assay type: cell-based; conditions: relative luciferase activity, vehicle (DMSO) control regarded as 1, 24 hours
T1 construct: human PPARα (including amino acid residues 167-468); expressed in transfected cells; host or cells: COS-1
T1 sequence (Q07869 167-468): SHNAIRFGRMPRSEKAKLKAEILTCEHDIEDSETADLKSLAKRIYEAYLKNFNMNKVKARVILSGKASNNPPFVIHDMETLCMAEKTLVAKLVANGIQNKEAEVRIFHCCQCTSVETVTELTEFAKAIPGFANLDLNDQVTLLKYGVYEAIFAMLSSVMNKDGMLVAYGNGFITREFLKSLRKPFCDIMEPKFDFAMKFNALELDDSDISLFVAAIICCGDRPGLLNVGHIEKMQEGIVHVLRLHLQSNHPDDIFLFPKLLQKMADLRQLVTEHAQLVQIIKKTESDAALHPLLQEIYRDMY
Description: (§1) By inserting a gene fragment encoding the ligand binding domain of human PPARα (including amino acid residues 167-468) or a gene fragment encoding the ligand binding domain of human PPARγ (including amino acids residue 204-505) into a multicloning site of expressing vector pM containing DNA binding domain of yeast GAL4 protein (Clonetech), a vector plasmid expressing a fused protein of GAL4 protein DNA binding domain and human PPARα or γ ligand binding domain.
(§2) As a reporter plasmid, pGL3-Basic Vector containing firefly luciferase gene (Promega Corporation) was used wherein Gal4-responsive sequence UAS and rabbit β-globin promoter were inserted.
(§3) For the modification of genetic transformation efficiency, a plasmid containing lacZ gene, pβgal control (Clonetech), was used.
(§4) COS-1 cells were cultured in the phenol red free Dulbecco's Modified Eagles Medium (DMEM) (Gibco) supplemented with 5% activated carbon/dextran stripped fetal bovine serum at 37° C. with 5% carbon dioxide. The COS-1 cells were plated at a concentration of 5×10^4 cells/well into a 24-well plate, and the plate was incubated overnight. The medium was replaced with a fresh medium supplemented without 5% activated carbon/dextran treated fetal bovine serum. Further, the cells were transfected using Lipofectamine plus reagent (Gibco) with plasmid GAL4-PPARα- or γ-expressing plasmid (5 ng), the reporter plasmid (50 ng), pβgal control (350 ng) per well. After incubation for 4 hours, the medium was changed with a fresh medium supplemented with 5% activated carbon/dextran treated fetal bovine serum. Then, the compound of the present invention was added thereto in such an amount that the final concentration thereof is 1 μM or 10 μM. After the cultivation for 24 hours, the cells were lysed with a solution for cell lysis accompanied to the Luciferase Assay System (Promega Corporation). The luciferase activity therein was measured by a luminometer using the reagent for measuring luciferase which was also accompanied to said System. The β-galactosidase activity was measured using a β-galactosidase enzyme assay system (Promega Corporation) to correct the generic transfection efficiency.
(§5) The PPARα- or γ-agonistic activity was expressed as a relative activity where the luciferase activity in the well to which the vehicle (DMSO) was added as control was regarded as 1.

[2] = biological target: T2, human PPARγ (Homo sapiens, UniProt P37231); assay: GAL4-PPARγ luciferase reporter assay in COS-1 cells; assay type: cell-based; conditions: relative luciferase activity, vehicle (DMSO) control regarded as 1, 24 hours
T2 construct: human PPARγ (including amino acids residue 204-505); expressed in transfected cells; host or cells: COS-1
T2 sequence (P37231 204-505): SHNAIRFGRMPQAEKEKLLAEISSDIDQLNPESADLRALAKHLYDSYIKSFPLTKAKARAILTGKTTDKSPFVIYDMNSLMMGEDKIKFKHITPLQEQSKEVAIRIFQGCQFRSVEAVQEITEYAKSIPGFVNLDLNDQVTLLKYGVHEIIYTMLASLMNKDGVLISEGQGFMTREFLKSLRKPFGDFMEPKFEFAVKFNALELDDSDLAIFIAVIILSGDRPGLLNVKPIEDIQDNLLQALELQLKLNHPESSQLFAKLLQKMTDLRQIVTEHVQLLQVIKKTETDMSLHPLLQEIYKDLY
Description: as §1, §2, §3, §4, §5

[3] = test system: male db/db mice; assay: Hypoglycemic activity in db/db mice; assay type: in vivo; conditions: 30 mg/kg orally once a day for 2 weeks, blood glucose level on the last day
Procedure: The test compounds as disclosed in Examples were dissolved or suspended in a 0.5% carbomethyl cellulose solution, and orally administered to male db/db mice (7 to 8 weeks old) at a final dose of 30 mg/kg once a day for 2 weeks. On the last day, the blood was taken at the tail vein, and immediately thereafter, perchloric acid was added for removing proteins, and the blood glucose level was measured by Glucose CII Test Wako (Wako Pure Industries, Ltd.).
In addition, the hypoglycemic activity was calculated by the following equation.

Row | Structure (SMILES) | PPARα-agonistic activity (10 μM) [1] | PPARγ-agonistic activity (10 μM) [2] | Hypoglycemic Activity (%) [3] [%]
1 | Cc1ccc(C(=O)c2nc3ccccc3n2C/C=C/c2ccc(COC(C)(C)C(=O)O)cc2)cc1 [Example 38] |  |  | 18.2
2 | COc1ccc(C(=O)c2nccn2C/C=C/c2ccc(CO[C@H](C)C(=O)O)cc2)cc1 [Example 29] |  |  | 43.0
3 | Cc1ccc(C(=O)c2cccn2C/C=C/c2ccc(CO[C@@H](C)C(=O)O)cc2)cc1 [Example 11, (2S)-2-[(4-{(1E)-3-[2-(4-Methylbenzoyl)-1H-pyrrol-1-yl]prop-1-en-1-yl}benzyl)-oxy]propionic acid 1,3-dihydroxy-2-(hydroxymethyl)propan-2-aminium salt] |  |  | 64.4
4 | Cc1ccc(C(=O)c2nccn2C/C=C/c2ccc(CO[C@H](C)C(=O)O)cc2)cc1 [Example 27] |  |  | 51.0
5 | Cc1ccc(C(=O)c2cccn2C/C=C/c2ccc(COCc3nnn[nH]3)cc2)cc1 [compound 51] | 17.7 | 8.9 | 
6 | Cc1ccc(C(=O)c2cccn2C/C=C/c2ccc(CO[C@H](C)C(=O)O)cc2)cc1 [Example 6B, (2R)-2-[(4-{(1E)-3-[2-(4-Methylbenzoyl)-1H-pyrrol-1-yl]prop-1-ene-1-yl}benzyl)-oxy]propionic acid] | 10.1 | 5.5 | 63.3

Now from value to compound, other results behind:

Row | PPARα-agonistic activity (10 μM) [1] | PPARγ-agonistic activity (10 μM) [2] | Structure (SMILES) | Hypoglycemic Activity (%) [3] [%]
7 | 12.6 | 3.4 | Cc1ccc(C(=O)c2cccn2C/C=C/c2cccc(COCC(=O)O)c2)cc1 [Example 4, [(3-{(1E)-3-[2-(4-Methylbenzoyl)-1H-pyrrol-1-yl]prop-1-en-1-yl}benzyl)oxy]acetic acid] | 
8 | 12.6 | 7.5 | Cc1ccc(C(=O)c2cccn2C/C=C/c2ccc(COC(C)(C)C(=O)O)cc2)cc1 [Example 3B, 2-Methyl-2-[(4-{(1E)-3-[2-(4-methylbenzoyl)-1H-pyrrol-1-yl]prop-1-en-1-yl}-benzyl)oxy]propionic acid] | 17.8
9 | 10.8 | 2.9 | Cc1ccc(C(=O)c2cccn2C/C=C/c2cccc(CO[C@@H](C)C(=O)O)c2)cc1 [Example 7B, (2S)-2-[(3-{(1E)-3-[2-(4-Methylbenzoyl)-1H-pyrrol-1-yl]prop-1-en-1-yl}benzyl)-oxy]propionic acid] | 
10 | 7.8 | 5.6 | Cc1ccc(C(=O)c2cccn2C/C=C/c2cccc(COC(C(=O)O)c3ccccc3)c2)cc1 (stereo not shown) [Example 2B, [(3-{(1E)-3-[2-(4-Methylbenzoyl)-1H-pyrrol-1-yl]prop-1-en-1-yl}benzyl)oxy]-(phenyl)acetic acid] | 
11 | 11.6 | 5.4 | Cc1ccc(C(=O)c2cccn2C/C=C/c2cccc(CO[C@H](C)C(=O)O)c2)cc1 [Example 5B, (2R)-2-[(3-{(1E)-3-[2-(4-Methylbenzoyl)-1H-pyrrol-1-yl]prop-1-en-1-yl}benzyl)-oxy]propionic acid] | 
12 | 8.6 | 5.3 | CCC(OCc1cccc(/C=C/Cn2cccc2C(=O)c2ccc(C)cc2)c1)C(=O)O (stereo not shown) [Example 9B, 2-[(3-{(1E)-3-[2-(4-methylbenzoyl)-1H-pyrrol-1-yl]prop-1-en-1-yl}benzyl)oxy]-butyric acid] | 
13 | 8.0 | 4.7 | Cc1ccc(C(=O)c2cccn2C/C=C/c2cccc(COC(C)(C)C(=O)O)c2)cc1 [Example 1B, 2-Methyl-2-[(3-{(1E)-3-[2-(4-methylbenzoyl)-1H-pyrrol-1-yl]prop-1-en-1-yl}-benzyl)oxy]propionic acid] | 21.2
